We go through 6 molecules from US20090275594A1, “3-HYDRAZONE PIPERAZINYL RIFAMYCIN DERIVATIVES USEFUL AS ANTIMICROBIAL AGENTS” (priority 2008, published 2009).

What all share (format): cell-based
Conditions in all cases: cation adjusted Mueller-Hinton broth, 35° C., 16-20 hours

In assay [1] the test system is Staphylococcus aureus ATCC 29213. The assay can be described thus: In vitro antibacterial activity, microdilution broth MIC (NCCLS M7-A4), strain B. How it is done:
(§1) Minimum inhibitory concentration (MIC) is an indicator of in vitro antibacterial activity. […] The in vitro antimicrobial activity of representative compounds of the present invention was determined by the microdilution broth method following the test method from the National Committee for Clinical Laboratory Standards (NCCLS). This method is described in the NCCLS Document M7-A4, Vol. 17, No. 2, “Methods for Dilution Antimicrobial Susceptibility Test for Bacteria that Grow Aerobically—Fourth Edition”, which is incorporated herein by reference.
(§2) In this method two-fold serial dilutions of drug in cation adjusted Mueller-Hinton broth were added to wells in microdilution trays. The test organisms were prepared by adjusting the turbidity of actively growing broth cultures so that the final concentration of test organism after it is added to the wells was approximately 5×10^4 CFU/well. Following inoculation of the microdilution trays, the trays were incubated at 35° C. for 16-20 hours and then read. The amount of growth in the wells containing the test compound was compared with the amount of growth in the growth-control wells (no test compound) used in each tray.
A general note: Dilution methods test growth across graded concentrations, often in twofold steps.

In assay [2] the test system is Enterococcus faecium OC 3312 vancomycin-resistant. The assay can be described thus: In vitro antibacterial activity, microdilution broth MIC (NCCLS M7-A4), strain A. The procedure:
as §1, §2

The subject of assay [3] is Staphylococcus aureus OC4172. Description: In vitro antibacterial activity, microdilution broth MIC (NCCLS M7-A4), strain D. The procedure:
as §1, §2

Assay [4] concerns Methicillin-resistant Staphylococcus aureus OC 3726 COL. Description: In vitro antibacterial activity, microdilution broth MIC (NCCLS M7-A4), strain C. The procedure:
as §1, §2

In brackets after ≈: the same amount, converted by molar mass.

On to `COC1C=COC2(C)Oc3c(C)c(O)c4c(O)c(c(C=NN5CCN(Cc6cc(C)no6)CC5)c(O)c4c3C2=O)NC(=O)C(C)=CC=CC(C)C(O)C(C)C(O)C(C)C(OC(C)=O)C1C` (stereo not drawn) [Compound 10], for which the “MIC (μg/mL) B Strain” value in assay [1] was “≦0.03 μg/mL”. The “MIC (μg/mL) A Strain” value in assay [2] was 0.06 µg/mL (≈ 0.0664 µM). Besides, in assay [3], the “MIC (μg/mL) D Strain” value is reported as “≦0.03 μg/mL”. For the same molecule, in assay [4], the “MIC (μg/mL) C Strain” value is “≦0.03 μg/mL”.
Take `COC1C=COC2(C)Oc3c(C)c(O)c4c(O)c(c(C=NN5CCN(Cc6cc(-c7cccnc7)no6)CC5)c(O)c4c3C2=O)NC(=O)C(C)=CC=CC(C)C(O)C(C)C(O)C(C)C(OC(C)=O)C1C` (stereo not drawn) [Compound 14]: the “MIC (μg/mL) B Strain” value in assay [1] was “≦0.03 μg/mL”. The “MIC (μg/mL) A Strain” value in assay [2] is 0.06 µg/mL (≈ 0.062 µM). For the same molecule, the “MIC (μg/mL) D Strain” value in assay [3] is “≦0.03 μg/mL”. Also, in assay [4], the “MIC (μg/mL) C Strain” value was “≦0.03 μg/mL”.
In the case of `COC1C=COC2(C)Oc3c(C)c(O)c4c(O)c(c(C=NN5CCN(CCc6cc(-c7ccc(Cl)cc7)no6)CC5)c(O)c4c3C2=O)NC(=O)C(C)=CC=CC(C)C(O)C(C)C(O)C(C)C(OC(C)=O)C1C` (stereo not drawn) [Compound 26], the “MIC (μg/mL) B Strain” value in assay [1] turned out to be 0.5 µg/mL (≈ 0.493 µM). Also, the “MIC (μg/mL) A Strain” value in assay [2] is 0.5 µg/mL (≈ 0.493 µM). In addition, in assay [3], the “MIC (μg/mL) D Strain” value came out at 0.25 µg/mL (≈ 0.246 µM). For the same molecule, the “MIC (μg/mL) C Strain” value in assay [4] came out at 0.25 µg/mL (≈ 0.246 µM).
In the case of `COC1C=COC2(C)Oc3c(C)c(O)c4c(O)c(c(C=NN5CCN(Cc6cc(-c7ccccn7)no6)CC5)c(O)c4c3C2=O)NC(=O)C(C)=CC=CC(C)C(O)C(C)C(O)C(C)C(OC(C)=O)C1C` (stereo not drawn) [Compound 13], in assay [1], the “MIC (μg/mL) B Strain” value is “≦0.03 μg/mL”. Besides, the “MIC (μg/mL) A Strain” value in assay [2] was 0.06 µg/mL (≈ 0.062 µM). In assay [3], the “MIC (μg/mL) D Strain” value is “≦0.03 μg/mL”. The “MIC (μg/mL) C Strain” value in assay [4] is reported as “≦0.03 μg/mL”.
As to `COC1C=COC2(C)Oc3c(C)c(O)c4c(O)c(c(C=NN5CCN(Cc6noc(-c7ccc(Cl)cc7)n6)CC5)c(O)c4c3C2=O)NC(=O)C(C)=CC=CC(C)C(O)C(C)C(O)C(C)C(OC(C)=O)C1C` (stereo not drawn) [Compound 25], the “MIC (μg/mL) B Strain” value in assay [1] stood at 0.5 µg/mL (≈ 0.499 µM). Moreover, the “MIC (μg/mL) A Strain” value in assay [2] is 0.5 µg/mL (≈ 0.499 µM). The “MIC (μg/mL) D Strain” value in assay [3] was 0.25 µg/mL (≈ 0.25 µM). The “MIC (μg/mL) C Strain” value in assay [4] worked out at 0.25 µg/mL (≈ 0.25 µM).
As for `COC1C=COC2(C)Oc3c(C)c(O)c4c(O)c(c(C=NN5CCN(Cc6cc(CN(C)C)no6)CC5)c(O)c4c3C2=O)NC(=O)C(C)=CC=CC(C)C(O)C(C)C(O)C(C)C(OC(C)=O)C1C` (stereo not drawn) [Compound 12], in assay [1], the “MIC (μg/mL) B Strain” value amounted to 0.06 µg/mL (≈ 0.0634 µM). Also, the “MIC (μg/mL) A Strain” value in assay [2] turned out to be 0.12 µg/mL (≈ 0.127 µM). The “MIC (μg/mL) D Strain” value in assay [3] was “≦0.03 μg/mL”. Also, the “MIC (μg/mL) C Strain” value in assay [4] is reported as “≦0.03 μg/mL”.
